System: 556581-035-R-J1-PDC complex spheroid growth
Assay: Anticancer human tumor 556581-035-R-J1-PDC patient-derived ovarian carcinoma cell line growth inhibition [Asc]
Conditions: for IC50: curve of first compound; for viability, T/C: stronger effect = lower value
Experimental: Multicellular complex tumor spheroid response to apoptosis pathway targeting inhibitors Alrizomadlin, Pelcitoclax, and Dasminapant in combination with a variety of drugs and investigational agents in selected tumor cell lines
The MDM2 inhibitor alrizomadlin, the Bcl-2/Bcl-xL inhibitor pelcitoclax, and the IAPs inhibitor dasminapant were evaluated both individually and in combination with standard of care and investigational anticancer small molecules within a complex spheroid model of solid tumors. . Complex spheroids include a stromal component modeled by human endothelial cells (HUVEC) and fibroblasts modeled by human mesenchymal stem cells (MSCs). The concentration ranges selected for each drug and investigational agent were based upon clinically achievable concentrations if the clinical Cmax of the agent was known.
Compounds. The drugs and investigational agents: alrizomadlin (APG-115; NSC831270), pelcitoclax (APG-1252; NSC835773), dasminapant (APG-1387;NSC834197), TAK-243 (NSC785004), copanlisib (NSC809693), olaparib (NSC753686), talazoparib (NSC767125), cobimetinib (NSC 768068), eltanexor (KPT-8602, NSC 794443), abemaciclib (NSC 768073), sotorasib (NSC818433), adagrasib (NSC 831453), MRTX-1133 (NSC 836407), Iadademestat (ORY1001, NSC 806812), and RMC-4630 (NSC839698), were obtained from the NCI Developmental Therapeutics Program Chemical Repository. The FDA-approved anticancer drug set is available from the Developmental Therapeutics Program at https://dtp.cancer.gov/organization/dscb/obtaining/available plates.htm. […] The stock solutions were prepared in dimethyl sulfoxide (DMSO, Sigma-Aldrich, St. Louis, MO, cat. D2650) at 800-fold the tested concentration and stored at -70 degrees C prior to their use. All drugs and investigational agents were tested over a range starting from a high concentration at or near the clinical Cmax and decreasing in half-log increments. If the clinical Cmax for an agent had not been determined, the highest concentration tested was 10 microM.
The patient-derived cancer (PDC) cell lines include five colon adenocarcinomas: 186277-243-T-J2-PDC, 616215-338-R-J1-PDC, 439559-082-T-J2-PDC, 463943-066-T-J2-PDC, and 519858-162-T-J1-PDC; three pancreatic carcinomas: 323965-272-R-J2-PDC, 521955-158-R6-J3-PDC, and 521955-158-R2-J5-PDC; two uterine sarcomas: 327498-152-R-J2-PDC and 993429-296-R-J1-PDC; two rhabdomyosarcomas: 755483-174-R-J1-PDC and 772245-204-R-J1-PDC; two soft tissue sarcomas: 126254-015-R-J1-PDC and 494315-158-R-J1-PDC; two malignant fibrous histiocytomas: 317291-083-R-J1-PDC and 596521-263-R-J1-PDC; two breast carcinomas: 171881-019-R-J1-PDC and 885512-296-R-J2-PDC; and one ovarian carcinoma: 6556581-035-R-J-PDC were obtained from the NCI PDMR, (https://pdmr.cancer.gov). The established cell lines HSSY-2 synovial sarcoma (RRID:CVCL 8719), SYO-1 synovial sarcoma (RRID:CVCL_7146), MPNST malignant peripheral neural sheath tumor were obtained from the Sloan Kettering Institute. The following established cell lines were purchased from the American Type Culture Collection (ATCC, Manassas, VA), Sor the received from the NCI repository:, PANC-1 pancreatic carcinoma (CRL-1469, RRID:CVCL_0480), OVCAR-5 ovarian carcinoma (RRID:CVCL_1628), OVCAR-8 ovarian carcinoma (RRID:CVCL_1629), , MCF-7 breast carcinoma (CRL-12584, RRID:CVCL_0031), MDA-MB-231 breast carcinoma (CRL-12532, RRID:CVCL_0062), NCI-H1876 small cell lung carcinoma (CRL-5902, RRID:CVCL_1503), NCI-H510A small cell lung carcinoma (HTB-184, RRID:CVCL_1565), NCI-H1417 (CRL-5869, RRID:CVCL_1469), and NCI-H196 small cell lung carcinoma (CRL-5823, RRID:CVCL_1509). Dr. Peter Houghton (Greehey Children's Cancer Research Institute, University of Texas Health Science Center, San Antonio, TX) provided Rh-18 rhabdomyosarcoma (RRID:CVCL_1659). Pooled donor human umbilical vein endothelial cells (HUVEC, Lonza, cat. CC-2519) and human mesenchymal stem cells (hMSC, Lonza, cat. PT-2501) were purchased from Lonza (Walkersville, MD).
Cell Culture. […]
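Also: spheroids exposed to agents for 7 days before viability read.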

## NC(=O)C(=Cn1cnc(-c2cc(C(F)(F)F)cc(C(F)(F)F)c2)n1)c1cncnc1 + CCN1C(C(=O)NC23CCC(C(=O)O)(CC2)CC3)C(c2cccc(Cl)c2F)C2(C(=O)Nc3cc(Cl)ccc32)C12CCCCC2
Second compound 0.03 µM
  IC50: > 300 nM
Second compound 0.0949 µM
  IC50: > 300 nM
Second compound 0.3 µM
  IC50: > 300 nM
Second compound 0.949 µM
  IC50: > 300 nM
Second compound 3 µM
  IC50: > 300 nM
Second compound 0.03 µM, first compound 0.000949 µM
  viability, T/C: 81%
Second compound 0.03 µM, first compound 0.003 µM
  viability, T/C: 96.2%
Second compound 0.03 µM, first compound 0.00949 µM
  viability, T/C: 87.3%
Second compound 0.03 µM, first compound 0.03 µM
  viability, T/C: 83.1%
Second compound 0.03 µM, first compound 0.0949 µM
  viability, T/C: 86.6%
Second compound 0.03 µM, first compound 0.3 µM
  viability, T/C: 86.6%
Second compound 0.0949 µM, first compound 0.000949 µM
  viability, T/C: 97.6%
Second compound 0.0949 µM, first compound 0.003 µM
  viability, T/C: 99.7%
Second compound 0.0949 µM, first compound 0.00949 µM
  viability, T/C: 92.9%
Second compound 0.0949 µM, first compound 0.03 µM
  viability, T/C: 86.7%
Second compound 0.0949 µM, first compound 0.0949 µM
  viability, T/C: 90.8%
Second compound 0.0949 µM, first compound 0.3 µM
  viability, T/C: 101%
Second compound 0.3 µM, first compound 0.000949 µM
  viability, T/C: 103%
Second compound 0.3 µM, first compound 0.003 µM
  viability, T/C: 91.6%
Second compound 0.3 µM, first compound 0.00949 µM
  viability, T/C: 94.9%
Second compound 0.3 µM, first compound 0.03 µM
  viability, T/C: 87.3%
Second compound 0.3 µM, first compound 0.0949 µM
  viability, T/C: 86.7%
Second compound 0.3 µM, first compound 0.3 µM
  viability, T/C: 97.1%
Second compound 0.949 µM, first compound 0.000949 µM
  viability, T/C: 88.4%
Second compound 0.949 µM, first compound 0.003 µM
  viability, T/C: 108%
Second compound 0.949 µM, first compound 0.00949 µM
  viability, T/C: 92.5%
Second compound 0.949 µM, first compound 0.03 µM
  viability, T/C: 101%
Second compound 0.949 µM, first compound 0.0949 µM
  viability, T/C: 90%
Second compound 0.949 µM, first compound 0.3 µM
  viability, T/C: 91.6%
Second compound 3 µM, first compound 0.000949 µM
  viability, T/C: 83.5%
Second compound 3 µM, first compound 0.003 µM
  viability, T/C: 87.9%
Second compound 3 µM, first compound 0.00949 µM
  viability, T/C: 81.7%
Second compound 3 µM, first compound 0.03 µM
  viability, T/C: 87.7%
Second compound 3 µM, first compound 0.0949 µM
  viability, T/C: 78.3%
Second compound 3 µM, first compound 0.3 µM
  viability, T/C: 61.2%
